Results: US20060292243A1, “Arsenic compounds for the treatment of the arsenic-sensitive blast-cell related diseases” (priority 2005, published 2006)

Tests used:
[1] = test system: ssDNA; test: Serum IgG anti-ssDNA ELISA in SLE model mice; type: in vivo, NZB/NZW mice
Method: (§1) In vivo studies on the activity of arsenic compound were carried out by using an experimental animal model of human Systemic Lupus Erythematosus. NZB/NZW denotes the mouse strain that spontaneously develops an autoimmune syndrome having notable similarities to human Systemic Lupus Erythematosus. Autoimmune disease in NZB/NZW mice is characterized by antinuclear antibodies (IgG) production about 4 months of age, and glomerulonephritis with proteinuria is developed when at 9 months of age, and that is the major cause of death (uremia).
(§2) At 24 weeks of age, mice (3 groups) were treated 3 times per week with PBS (Group I as positive control), 2.5 mg/kg of As2O3 (Group II), or 5 mg/kg of As2O3 (Group III) administered intraperitoneally. The treatment was stopped at 28 weeks of age. Mice were observed daily for clinical signs of disease and for mortality and were bled every 4 weeks for determination of anti-DNA antibody production.
(§3) Standard ELISA assay to measure the serum levels of anti-DNA antibodies was performed as follows. The plates were coated 10 μg/mL mBSA 4° C. overnight before coating dsDNA and ssDNA diluted with PBS to concentration of 7.5 μg/mL. ssDNA was prepared by boiling for 20 min then placed on ice immediately for 20 min. After overnight incubation at 4° C., the plates were washed and blocked with gelatin-PBS solution. The serum was diluted and then added to the appropriate wells, which were then incubated at 37° C. for 45 min. Horseradish peroxidase-comjugated anti-mouse γ-chain-specific antibodies were added. After incubation at 37° C. for 50 min, then room temperature for 10 min, 2,2′-azino-bisC3-ethylbenzthiazoline-6-sulphonic acid (ABTS) solution was used as substrate and the absorbance was measured at 405 nm. The level of anti-DNA IgG is presented as ELISA units (EU/ml) compared with mAb 10F10. The OD value generated by 74 ng/ml of 10F10 Ab was defined as 1 EU/ml for anti-DNA IgG. The level of anti-nucleosome IgG was calculated as EU by comparison with 10F10 Ab. The absorbance value generated by 231 ng/ml of 10F10 Ab was defined as 1 EU/ml of anti-nucleosome IgG.

[2] = test system: dsDNA; test: Serum IgG anti-dsDNA ELISA in SLE model mice; type: in vivo, NZB/NZW mice
Method: as §1, §2, §3

[3] = 2.5 mg/kg i.p. 3 times per week, before treatment
[4] = 2.5 mg/kg, 4 weeks after treatment
[5] = 2.5 mg/kg, 8 weeks after treatment
[6] = 2.5 mg/kg, 12 weeks after treatment
[7] = 5 mg/kg i.p. 3 times per week, before treatment
[8] = 5 mg/kg, 4 weeks after treatment
[9] = 5 mg/kg, 8 weeks after treatment
[10] = 5 mg/kg, 12 weeks after treatment

Substance: arsenic trioxide
- IgG Anti-ssDNA titer [1, 3]: 0.155 ELISA Unit
- IgG Anti-ssDNA titer [1, 4]: 0.347 ELISA Unit
- IgG Anti-ssDNA titer [1, 5]: 0.400 ELISA Unit
- IgG Anti-ssDNA titer [1, 6]: 0.105 ELISA Unit
- IgG Anti-ssDNA titer [1, 7]: 0.176 ELISA Unit
- IgG Anti-ssDNA titer [1, 8]: 0.303 ELISA Unit
- IgG Anti-ssDNA titer [1, 9]: 0.296 ELISA Unit
- IgG Anti-ssDNA titer [1, 10]: 0.201 ELISA Unit
- IgG Anti-dsDNA titer [2, 3]: 0.262 ELISA Unit
- IgG Anti-dsDNA titer [2, 4]: 0.572 ELISA Unit
- IgG Anti-dsDNA titer [2, 5]: 0.464 ELISA Unit
- IgG Anti-dsDNA titer [2, 6]: 0.442 ELISA Unit
- IgG Anti-dsDNA titer [2, 7]: 0.362 ELISA Unit
- IgG Anti-dsDNA titer [2, 8]: 0.285 ELISA Unit
- IgG Anti-dsDNA titer [2, 9]: 0.357 ELISA Unit
- IgG Anti-dsDNA titer [2, 10]: 0.702 ELISA Unit
- anti-DNA antibody levels in sera compared to PBS (Tables 4.1 and 4.2, ssDNA and dsDNA) ([2]; NZB/NZW mice, 2.5 or 5 mg/kg): significantly lower anti-DNA antibody levels
